The subject of the test is brain levels of soluble Aβ42, Aβ40, Aβ38, and Aβ37. The test can be described thus: In vivo Aβ lowering, brain levels of soluble Aβ by MSD electrochemiluminescence. The arrangement: species or system mouse. As to conditions: 10 mg/kg s.c., 4 h after administration; untreated animals as control set at 100. From the text:
To determine whether acute administration of an Aβ lowering agent would reduce Aβ levels in vivo, non-transgenic rodents, e.g. mice or rats were used. Animals treated with the Aβ lowering agent were examined and compared to those untreated or treated with vehicle and brain levels of soluble Aβ42, Aβ40, Aβ38, and Aβ37 were quantitated by Meso Scale Discovery's (MSD) electrochemiluminescence detection technology. Treatment periods varied from hours (h) to days and were adjusted based on the results of the Aβ lowering once a time course of onset of effect could be established.
A typical protocol for measuring Aβ lowering in vivo is shown but it is only one of many variations that could be used to optimize the levels of detectable Aβ. […] After 4 h, the animals were sacrificed and Aβ levels were analysed.
Blood was collected by decapitation and exsanguinations in EDTA-treated collection tubes. […] The left hemisphere was stored at −18° C. for quantitative analysis of test compound levels. […]
Mouse brains from non-transgenic animals were resuspended in 8 volumes of 0.4% DEA (diethylamine)/50 mM NaCl containing protease inhibitors (Roche-11873580001 or 04693159001) per gram of tissue, e.g. for 0.158 g brain, add 1.264 ml of 0.4% DEA. […] Nine parts of supernatant were neutralized with 1 part 0.5 M Tris-HCl pH 6.8 and used to quantify Aβ. […]

With `COc1ncc(C#N)c2c1C[C@]1(c3ccccc3F)N=C(N)SC[C@@H]1C2` (racemic) [Compound 22], the “Aβ40 (% vs Ctrl)_Mean” value was found to be 39 % vs Ctrl and the “Aβ42 (% vs Ctrl)_Mean” value is given as 32 % vs Ctrl.

For the origin of these results see patent publication US20200010482A1, “INHIBITORS OF BETA SECRETASE” (Janssen Pharmaceutica NV, priority 2017, published 2020).
